Key:
[1] = target: T1, Serine/threonine-protein kinase Nek2 (Homo sapiens) (UniProt P51955); experiment: Percentage NEK2a activity remaining in the presence of 0.01uM inhibitor
T1 sequence (whole entry): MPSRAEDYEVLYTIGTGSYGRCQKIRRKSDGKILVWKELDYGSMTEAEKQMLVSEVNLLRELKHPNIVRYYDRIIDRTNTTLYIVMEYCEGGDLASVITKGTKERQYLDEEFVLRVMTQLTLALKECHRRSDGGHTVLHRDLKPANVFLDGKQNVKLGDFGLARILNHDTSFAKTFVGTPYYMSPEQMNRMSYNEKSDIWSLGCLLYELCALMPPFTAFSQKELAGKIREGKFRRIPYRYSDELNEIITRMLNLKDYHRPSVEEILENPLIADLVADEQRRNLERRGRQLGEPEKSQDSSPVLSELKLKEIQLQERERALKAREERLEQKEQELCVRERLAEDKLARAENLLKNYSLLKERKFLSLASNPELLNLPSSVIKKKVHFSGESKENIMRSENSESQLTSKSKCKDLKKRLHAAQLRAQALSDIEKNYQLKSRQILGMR

[2] = target: Serine/threonine-protein kinase PAK 5 (Homo sapiens) (UniProt Q9P286); experiment: Percentage PAK5 activity remaining in the presence of 25uM inhibitor
Serine/threonine-protein kinase PAK 5 (Homo sapiens), sequence (Q9P286 whole entry, looked up): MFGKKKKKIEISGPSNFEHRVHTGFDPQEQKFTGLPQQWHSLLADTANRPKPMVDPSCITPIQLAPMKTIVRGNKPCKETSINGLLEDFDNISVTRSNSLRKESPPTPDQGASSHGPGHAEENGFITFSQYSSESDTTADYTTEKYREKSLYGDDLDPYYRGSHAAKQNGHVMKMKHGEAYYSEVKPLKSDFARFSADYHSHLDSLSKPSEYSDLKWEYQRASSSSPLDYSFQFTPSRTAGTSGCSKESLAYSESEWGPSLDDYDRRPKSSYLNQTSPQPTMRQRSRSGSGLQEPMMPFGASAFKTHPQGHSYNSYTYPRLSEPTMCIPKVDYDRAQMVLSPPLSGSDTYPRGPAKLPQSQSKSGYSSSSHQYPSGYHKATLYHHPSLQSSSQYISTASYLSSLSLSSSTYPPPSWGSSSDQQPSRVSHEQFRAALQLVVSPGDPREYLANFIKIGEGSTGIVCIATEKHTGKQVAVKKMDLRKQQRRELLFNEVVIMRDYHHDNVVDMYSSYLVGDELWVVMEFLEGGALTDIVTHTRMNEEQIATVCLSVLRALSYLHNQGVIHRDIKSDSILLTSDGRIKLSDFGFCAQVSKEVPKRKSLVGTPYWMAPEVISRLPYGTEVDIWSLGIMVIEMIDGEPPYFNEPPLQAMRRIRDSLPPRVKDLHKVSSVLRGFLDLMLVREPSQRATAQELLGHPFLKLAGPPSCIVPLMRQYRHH

[3] = target: T2, Dual specificity tyrosine-phosphorylation-regulated kinase 3 (Homo sapiens) (UniProt O43781); experiment: Percentage DYRK3 activity remaining in the presence of 25uM inhibitor
T2 sequence (whole entry): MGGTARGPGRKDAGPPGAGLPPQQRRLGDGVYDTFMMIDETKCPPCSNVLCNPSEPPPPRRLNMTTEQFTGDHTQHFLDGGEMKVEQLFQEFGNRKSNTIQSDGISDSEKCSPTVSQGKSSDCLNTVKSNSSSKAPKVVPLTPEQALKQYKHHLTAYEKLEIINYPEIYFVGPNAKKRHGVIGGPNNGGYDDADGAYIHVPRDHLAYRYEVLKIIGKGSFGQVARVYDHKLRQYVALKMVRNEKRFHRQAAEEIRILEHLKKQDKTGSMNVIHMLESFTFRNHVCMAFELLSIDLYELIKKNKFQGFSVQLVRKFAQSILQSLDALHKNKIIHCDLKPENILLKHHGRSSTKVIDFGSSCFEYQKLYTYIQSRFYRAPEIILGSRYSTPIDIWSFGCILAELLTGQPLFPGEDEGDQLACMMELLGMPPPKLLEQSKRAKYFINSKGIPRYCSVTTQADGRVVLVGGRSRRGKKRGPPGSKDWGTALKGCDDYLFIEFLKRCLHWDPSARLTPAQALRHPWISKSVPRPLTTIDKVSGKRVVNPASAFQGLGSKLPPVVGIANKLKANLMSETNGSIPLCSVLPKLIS

[4] = target: Tyrosine-protein kinase CSK (Homo sapiens, UniProt P41240); experiment: Percentage CSK activity remaining in the presence of 25uM inhibitor
Tyrosine-protein kinase CSK, sequence (P41240 2-450 limits assumed): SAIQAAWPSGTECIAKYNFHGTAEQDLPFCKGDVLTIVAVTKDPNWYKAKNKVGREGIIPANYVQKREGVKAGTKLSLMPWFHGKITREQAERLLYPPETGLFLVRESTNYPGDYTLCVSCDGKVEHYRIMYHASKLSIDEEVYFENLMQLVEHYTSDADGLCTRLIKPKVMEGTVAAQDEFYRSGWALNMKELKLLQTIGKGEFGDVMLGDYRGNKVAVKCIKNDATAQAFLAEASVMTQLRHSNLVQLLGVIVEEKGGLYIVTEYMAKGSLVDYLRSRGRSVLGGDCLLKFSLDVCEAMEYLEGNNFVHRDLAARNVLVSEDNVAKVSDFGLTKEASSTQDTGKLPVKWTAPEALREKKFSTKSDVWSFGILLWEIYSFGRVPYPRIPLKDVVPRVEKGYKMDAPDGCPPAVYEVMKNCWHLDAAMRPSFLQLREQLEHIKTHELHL

[5] = target: Serine/threonine-protein kinase Nek6 (Homo sapiens) (UniProt Q9HC98); experiment: Percentage NEK6 activity remaining in the presence of 25uM inhibitor
Serine/threonine-protein kinase Nek6 (Homo sapiens), sequence (Q9HC98 whole entry): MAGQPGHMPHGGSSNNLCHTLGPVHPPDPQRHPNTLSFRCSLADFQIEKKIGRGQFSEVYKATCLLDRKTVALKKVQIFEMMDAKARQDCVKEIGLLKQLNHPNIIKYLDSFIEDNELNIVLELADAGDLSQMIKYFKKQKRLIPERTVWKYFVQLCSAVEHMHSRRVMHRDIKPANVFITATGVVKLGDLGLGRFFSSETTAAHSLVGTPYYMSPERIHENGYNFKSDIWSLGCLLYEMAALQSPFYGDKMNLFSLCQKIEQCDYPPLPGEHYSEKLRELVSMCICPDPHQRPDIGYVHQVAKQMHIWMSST

[6] = target: cAMP-dependent protein kinase catalytic subunit alpha (Homo sapiens, UniProt P17612); experiment: Percentage PKA activity remaining in the presence of […]uM inhibitor; conditions: at 25 µM
[7] = target: Mitogen-activated protein kinase 8 (Homo sapiens, UniProt P45983); experiment: Percentage JNK1 activity remaining in the presence of 3uM inhibitor
Mitogen-activated protein kinase 8, sequence (P45983 whole entry): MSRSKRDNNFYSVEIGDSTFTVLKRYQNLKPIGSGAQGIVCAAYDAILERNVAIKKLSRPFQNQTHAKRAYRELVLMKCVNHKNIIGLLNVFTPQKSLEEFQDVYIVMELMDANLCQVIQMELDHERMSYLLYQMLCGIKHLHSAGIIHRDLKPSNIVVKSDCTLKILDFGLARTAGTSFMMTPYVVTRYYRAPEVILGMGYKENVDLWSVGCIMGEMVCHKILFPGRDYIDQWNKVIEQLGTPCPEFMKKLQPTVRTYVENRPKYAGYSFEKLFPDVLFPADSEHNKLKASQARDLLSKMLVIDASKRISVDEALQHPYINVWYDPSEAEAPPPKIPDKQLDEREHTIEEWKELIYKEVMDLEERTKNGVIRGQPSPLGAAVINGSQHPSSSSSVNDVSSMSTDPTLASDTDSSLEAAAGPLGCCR

[8] = target: Serine/threonine-protein kinase pim-1 (Homo sapiens, UniProt P11309); experiment: Percentage PIM1 activity remaining in the presence of 2uM inhibitor
Serine/threonine-protein kinase pim-1, sequence (P11309 whole entry, looked up): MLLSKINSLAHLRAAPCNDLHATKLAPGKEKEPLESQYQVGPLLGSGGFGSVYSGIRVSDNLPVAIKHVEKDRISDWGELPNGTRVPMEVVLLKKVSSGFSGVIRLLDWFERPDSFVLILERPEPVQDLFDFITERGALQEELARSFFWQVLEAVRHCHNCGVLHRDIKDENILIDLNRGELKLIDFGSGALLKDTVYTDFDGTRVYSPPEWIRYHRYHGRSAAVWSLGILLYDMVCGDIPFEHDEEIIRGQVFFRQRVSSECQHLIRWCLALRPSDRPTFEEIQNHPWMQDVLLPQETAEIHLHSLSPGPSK

[9] = target: T3, Dual specificity tyrosine-phosphorylation-regulated kinase 2 (Homo sapiens) (UniProt Q92630); experiment: Percentage DYRK2 activity remaining in the presence of 2uM inhibitor
T3 sequence (whole entry): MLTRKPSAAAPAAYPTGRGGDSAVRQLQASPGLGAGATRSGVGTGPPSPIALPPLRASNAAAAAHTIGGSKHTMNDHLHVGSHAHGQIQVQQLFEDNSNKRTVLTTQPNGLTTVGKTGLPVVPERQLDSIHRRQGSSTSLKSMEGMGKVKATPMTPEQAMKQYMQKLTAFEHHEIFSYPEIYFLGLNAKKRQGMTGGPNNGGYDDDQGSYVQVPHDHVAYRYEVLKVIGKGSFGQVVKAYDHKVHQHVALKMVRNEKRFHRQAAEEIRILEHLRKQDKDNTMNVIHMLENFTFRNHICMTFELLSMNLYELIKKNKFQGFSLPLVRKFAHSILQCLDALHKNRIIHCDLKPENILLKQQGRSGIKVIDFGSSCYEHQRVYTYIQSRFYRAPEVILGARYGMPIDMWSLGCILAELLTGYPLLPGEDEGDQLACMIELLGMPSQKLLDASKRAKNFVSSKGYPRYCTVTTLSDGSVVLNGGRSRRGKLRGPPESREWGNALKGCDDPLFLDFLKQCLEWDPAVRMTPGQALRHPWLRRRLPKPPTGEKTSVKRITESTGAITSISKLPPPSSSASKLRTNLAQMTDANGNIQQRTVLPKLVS

[10] = target: Proto-oncogene tyrosine-protein kinase Src (Gallus gallus) (UniProt P00523); experiment: Percentage Src activity remaining in the presence of 2uM inhibitor
[11] = target: MAP kinase-activated protein kinase 2 (Homo sapiens) (UniProt P49137); experiment: Percentage MAPKAPK2 activity remaining in the presence of 2uM inhibitor
MAP kinase-activated protein kinase 2 (Homo sapiens), sequence (P49137 whole entry, looked up): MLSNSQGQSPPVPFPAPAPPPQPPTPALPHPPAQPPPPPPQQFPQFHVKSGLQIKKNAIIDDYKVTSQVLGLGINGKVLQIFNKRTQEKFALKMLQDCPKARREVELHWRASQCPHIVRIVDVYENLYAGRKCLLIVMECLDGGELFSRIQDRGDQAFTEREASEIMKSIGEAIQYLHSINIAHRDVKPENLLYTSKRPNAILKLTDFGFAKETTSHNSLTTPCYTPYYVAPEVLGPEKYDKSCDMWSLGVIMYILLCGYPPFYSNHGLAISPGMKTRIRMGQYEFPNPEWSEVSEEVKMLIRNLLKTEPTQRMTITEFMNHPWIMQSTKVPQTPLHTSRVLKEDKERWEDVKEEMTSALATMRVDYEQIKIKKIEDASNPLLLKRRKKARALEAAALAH

[12] = target: Myosin light chain kinase, smooth muscle (Homo sapiens, UniProt Q15746); experiment: Percentage SmMLCK activity remaining in the presence of 2uM inhibitor
[13] = target: Mitogen-activated protein kinase 11 (Homo sapiens) (UniProt Q15759); experiment: Percentage p38beta activity remaining in the presence of 2uM inhibitor
Mitogen-activated protein kinase 11 (Homo sapiens), sequence (Q15759 whole entry): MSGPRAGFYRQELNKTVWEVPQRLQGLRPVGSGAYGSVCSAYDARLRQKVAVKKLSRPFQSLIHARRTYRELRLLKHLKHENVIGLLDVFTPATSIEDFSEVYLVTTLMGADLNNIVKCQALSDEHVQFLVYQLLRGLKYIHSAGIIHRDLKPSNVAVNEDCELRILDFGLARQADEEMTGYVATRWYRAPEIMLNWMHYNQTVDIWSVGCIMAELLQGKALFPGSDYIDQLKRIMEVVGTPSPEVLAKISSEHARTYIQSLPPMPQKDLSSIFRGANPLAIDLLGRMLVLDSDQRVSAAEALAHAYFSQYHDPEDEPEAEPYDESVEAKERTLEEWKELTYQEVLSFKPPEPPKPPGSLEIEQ

[14] = target: SRSF protein kinase 1 (Homo sapiens) (UniProt Q96SB4); experiment: Percentage SRPK1 activity remaining in the presence of 25uM inhibitor
SRSF protein kinase 1 (Homo sapiens), sequence (Q96SB4 whole entry): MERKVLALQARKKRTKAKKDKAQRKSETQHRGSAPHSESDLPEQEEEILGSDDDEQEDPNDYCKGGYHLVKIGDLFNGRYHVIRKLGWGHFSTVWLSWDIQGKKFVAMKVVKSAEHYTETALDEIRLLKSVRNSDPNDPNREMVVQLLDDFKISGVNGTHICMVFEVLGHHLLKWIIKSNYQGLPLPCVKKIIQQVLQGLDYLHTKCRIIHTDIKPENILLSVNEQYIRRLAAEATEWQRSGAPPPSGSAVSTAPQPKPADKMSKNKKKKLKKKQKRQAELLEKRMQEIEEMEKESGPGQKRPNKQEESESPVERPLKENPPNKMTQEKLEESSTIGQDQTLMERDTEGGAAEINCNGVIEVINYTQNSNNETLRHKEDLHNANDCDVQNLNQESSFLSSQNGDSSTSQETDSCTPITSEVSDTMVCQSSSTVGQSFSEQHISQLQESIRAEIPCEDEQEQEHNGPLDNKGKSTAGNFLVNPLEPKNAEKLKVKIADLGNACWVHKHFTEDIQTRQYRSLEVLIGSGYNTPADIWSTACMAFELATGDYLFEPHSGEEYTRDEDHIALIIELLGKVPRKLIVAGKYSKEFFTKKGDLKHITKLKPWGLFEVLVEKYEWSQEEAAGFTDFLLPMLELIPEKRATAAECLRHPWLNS

Structure (SMILES)	Activity [1]	Activity [2]	Activity [4]	Activity [5]	Activity [6]	other results
O=C(NCCCNc1nc(Nc2cccc(NC(=O)N3CCCC3)c2)ncc1I)c1cccs1	92%					
COc1cc(OC)c(/C=C2/C(=O)Nc3ccccc32)c(OC)c1		84%	81%	95%	82%	Activity [3]: 89%
Cc1ccc(-c2c(C(=O)CF)n(CCCO)c3ncnc(N)c23)cc1						Activity [7]: 81%
Cn1cc(C2=C(c3ccc(Cl)cc3Cl)C(=O)NC2=O)c2ccccc21						Activity [8]: 56%; Activity [9]: 92%; Activity [10]: 83%; Activity [11]: 82%; Activity [12]: 60%; Activity [13]: 85%
CN[C@@H]1C[C@H]2O[C@@](C)([C@@H]1OC)n1c3ccccc3c3c4c(c5c6ccccc6n2c5c31)C(=O)N[C@H]4O (stereo in doubt)	85%					
NCCNS(=O)(=O)c1ccc(Cl)c2ccncc12		86%	79%	90%	65%	Activity ([3]; filed as antagonist): 46%; Activity [14]: 86%
